Measured values: patent US4474811A, “Anti-inflammatory ophthalmic solution and process for preparing the same” (Kakenyaku Kako Co., Ltd., priority 1981, dated 1984)
Structures can show the parent of a compound that is named as a salt. Where two headings read alike, the source gives them in different places.

How the values were obtained:
[1] = test system: biosynthesis of PGs from arachidonic acid; conditions: lung homogenate of guinea pig; cited from earlier work
[2] = test system: intraocular pressure elevation and aqueous humor protein increase; conditions: rabbits; arachidonic acid; suspensions, FP as aqueous solution; Invest. Ophthalmol., 15(10), 841 to 844 (1976); cited from earlier work
quinine or PGs system = conditions: compared with known nonsteroidal anti-inflammatory agents; cited from earlier work
[3] = cited from earlier work
human eye = assay: Irritation of FP to the human eye (general statement); type: in vivo; conditions: concentration of FP above 0.2%
From the text: Under the coexistence with β-CD or γ-CD, the solubility of FP in a high concentration can be attained and the decrement of the above-mentioned irritation can be attained even by the use of FP in a high concentration. Moreover, an ophthalmic solution containing FP stable for a long term is obtained by coexisting FP with β-CD or γ-CD.

[4] = test system: carrageenan-induced edema; conditions: administered orally, rat; cited from earlier work
[5] = cited from earlier work; remark: listed apart in the source
[6] = test system: eye of the rabbits (pupillary diameter); assay: Mydriasis effect of atropine (Test Example 4); type: in vivo, rabbit; conditions: 1 w/v % atropine sulfate, 40 μl.
Experimental: Mydriasis induced by atropine instillation was first observed, assuming that a mydriasis treatment is usually performed prior to operation.
The test was performed using 5 rabbits, and a drop (40 μl.) of a 1 w/v % solution of atropine sulfate in physiological salt solution was instilled to the right eye of the rabbits, and the change of status of the eye with lapse of time was observed by the photographic determination of pupillary diameter. The pupillary diameter difference [(the pupillary diameter at each time after instillation)--(the pupillary diameter before instillation)] and rate of mydriasis (%), which was calculated according to the following formula, were determined. [formula] The pupillary diameter difference and the rate of mydriasis in FIG. 5 are the mean values as to 5 rabbits.

[7] = oil preparation; cited from earlier work
blood-aqueous barrier = conditions: adding IM instillation vs adding no IM instillation; cited from earlier work
eye ball = conditions: oil preparation, topical instillation to the eye ball; cited from earlier work
intraocular pressure = conditions: subconjunctival injection, cited from earlier work

Compound: CC(C(=O)O)c1ccc(-c2ccccc2)c(F)c1 (centres unmarked) [FP, 2-(2-fluoro-4-biphenylyl)propionic acid]
- inhibitory effect on biosynthesis of PGs relative to aspirin [1]: 2,280 times
- inhibitory effect on biosynthesis of PGs relative to indomethacin [1]: 10 times
- inhibitory effect on the intraocular pressure elevation and aqueous humor protein increase [2]: particularly strong inhibitory effects
- strength of inhibitory effect (quinine or PGs system): the strongest among known nonsteroidal anti-inflammatory agents
- solubility [3]: limited solubility
- irritation to the human eye (human eye): enhanced
- anti-inflammatory effect relative to aspirin [4]: 250 times
- anti-inflammatory effect relative to indomethacin [4]: 14 times

Compound: CC(=O)Oc1ccccc1C(=O)O [aspirin]
- side effect ([5]; in vivo, po): digestive trouble

Compound: CN1[C@@H]2CC[C@H]1C[C@@H](OC(=O)C(CO)c1ccccc1)C2 (some centres unmarked) [atropine, atropine sulfate]
- time to maximum pupillary diameter [6]: one
- change in the maximum pupillary diameter ([6]; even after 6 hours from the instillation): no change

Compound: COc1ccc2c(c1)c(CC(=O)O)c(C)n2C(=O)c1ccc(Cl)cc1 [indomethacin]
- inhibitory effect on the intraocular pressure elevation and aqueous humor protein increase [2]: particularly strong inhibitory effects
- side effect ([5]; oral administration in large amounts): digestive trouble
- stability of the preparation [7]: poor
- inhibition on increase of permeability of blood-aqueous barrier after operation, relative to no IM instillation (blood-aqueous barrier): about 3 times
- feeling in use (eye ball): bad

Compound: COc1ccc(-c2[nH]c3ccccc3c2-c2ccc(OC)cc2)cc1 [indoxole]
- inhibitory effect on the intraocular pressure elevation and aqueous humor protein increase [2]: particularly strong inhibitory effects

Compound: Cc1ccc(Cl)c(Nc2ccccc2C(=O)O)c1Cl [meclofenamic acid]
- inhibitory effect on the intraocular pressure elevation and aqueous humor protein increase [2]: particularly strong inhibitory effects

Compound: polyphloretin phosphate
- effect on intraocular pressure (intraocular pressure; glaucomatocyclitic crisis): effect of decreasing the intraocular pressure
- pain (intraocular pressure): causes pain to a patient and eye pain or smart feeling is strong
